One experiment has as its target human ATX (Homo sapiens (Human), UniProt Q13822). In words: Human ATX enzyme inhibition assay (fluorescence quenching, MR121 substrate). The experiment is classed as biochemical. On the procedure: Human ATX Enzyme Inhibition Assay
ATX inhibition was measured by a fluorescence quenching assay using a specifically labeled substrate analogue (MR121 substrate). To obtain this MR121 substrate, BOC and TBS protected 6-amino-hexanoic acid (R)-3-({2-[3-(2-{2-[2-(2-amino-ethoxy)-ethoxy]-ethoxy}-ethoxy)-propionylamino]-ethoxy}-hydroxy-phosphoryloxy)-2-hydroxy-propyl ester (Ferguson et al., Org Lett 2006, 8 (10), 2023) was labeled with MR121 fluorophore (CAS 185308-24-1, 1-(3-carboxypropyl)-11-ethyl-1,2,3,4,8,9,10,11-octahydro-dipyrido[3,2-b:2′,3′-i]phenoxazin-13-ium) on the free amine of the ethanolamine side and then, after deprotection, subsequently with tryptophan on the side of the aminohexanoic acid.
(§1) Assay working solutions were made as follows:
Assay buffer (50 mM Tris-HCl, 140 mM NaCl, 5 mM KCl, 1 mM CaCl2, 1 mM MgCl2, 0.01% Triton-X-100, pH 8.0;
ATX solution: ATX (human His-tagged) stock solution (1.08 mg/mL in 20 mM bicine, pH 8.5, 0.15 M NaCl, 10% glycerol, 0.3% CHAPS, 0.02% NaN3), diluted to 1.4-2.5× final concentration in assay buffer;
MR121 substrate solution: MR121 substrate stock solution (800 μM MR121 substrate in DMSO), diluted to 2-5× final concentration in assay buffer.
Test compounds (10 mM stock in DMSO, 8 μL) were obtained in 384 well sample plates (Corning Costar #3655) and diluted with 8 μL DMSO. Row-wise serial dilutions were made by transferring 8 μL cpd solution to the next row up to row O. The compound and control solutions were mixed five times and 2 μL were transferred to 384 well assay plates (Corning Costar #3702). Then, 15 μL of 41.7 nM ATX solution was added (30 nM final concentration), mixed five times and then incubated for 15 minutes at 30° C. 10 μL of MR121 substrate solution was added (1 μM final concentration), mixed 30 times and then incubated for 15 minutes at 30° C.

The target of experiment [1] is Human carbonic anhydrase II (hCA-II) (Homo sapiens (Human), UniProt P00918). In words: Human carbonic anhydrase-II inhibition assay (absorbance, 4-nitrophenyl acetate substrate). It counts as biochemical. Here is the method:
Human Carbonic Anhydrase-II Inhibition Assay
Human carbonic anhydrase II (hCA-II) inhibition was measured by an absorbance method using 4-nitrophenyl acetate (4-NPA) as its substrate. 4-NPA can be catalyzed by active hCA II via a zinc-hydroxide mechanism. The nitrophenolate in the products can be ionized to generate a bright yellow anion with high absorbance at 348 to 400 nm, as reported in the literature (Armstrong et al., J. Biol. Chem. 1966, 241, 5137-5149). OD340 nm was chosen for detecting hCA II substrate conversion.
as §1
Assay buffer: 50 mM MOPS, 33 mM Na2SO4, 1 mM EDTA, 0.5 mg/ml BSA, pH 7.5;
Enzyme solution: hCA-II (human, full length) stock solution (1.0 mg/mL in 20 mM HEPES, 50 mM NaCl, pH 7.4), diluted to 2133× final concentration in assay buffer;
4-NPA substrate solution: 4-NPA substrate stock solution (250 mM in DMSO, stored at −20° C.), diluted to 50× final concentration in deionized water.
Test compounds (10 mM stock in DMSO, 100 μL) were obtained in […] sample plates (Corning Costar #3655) and diluted to 0.5 mM. Column-wise serial dilutions were made by transferring 20 μL compound solutions to the next column, from column 3 up to 22. After this, 1.2 μL were transferred to 384 well assay plates (Corning Costar #3701). Then 30 μL of 16 nM hCA II solution was added (8 nM final concentration), mixed five times. 30 μL of 4-NPA substrate solution was added (2.5 mM final concentration), mixed five times. Absorbance at 340 nm was then measured immediately as time zero. The assay plates were incubated at room temperature for 1 hour and then measured as time 1 hour (Perkin Elmer EnVision 2103; Filter: Photometric 340; Light intensity 60%; Number of flashes: 10). IC50 values and Ki values were calculated from these readouts.

Where [2] appears, read: human His-tagged ATX 30 nM, MR121 substrate 1 μM, 30° C., read-out: ATX IC50.
Where [3] appears, read: hCA II 8 nM, 4-NPA 2.5 mM, absorbance 340 nm, room temperature 1 hour, read-out: CA-II IC50.

Like-named read-outs stand apart in the source and are kept apart here.

In general, IC50 refers to the point on the concentration scale where inhibition reaches its midpoint. For `CC(C)(C)C(=O)Nc1cc(C(F)(F)F)cnc1COC(=O)N1CC2=C(C1)CN(C(=O)c1ccc(S(N)(=O)=O)cn1)C2` [Example 1.05, [3-(2,2-dimethylpropanoylamino)-5-(trifluoromethyl)pyridin-2-yl]methyl 2-(5-sulfamoylpyridine-2-carbonyl)-1,3,4,6-tetrahydropyrrolo[3,4-c]pyrrole-5-carboxylate], the IC50 on human ATX (setting [2]) is 7 nM; in experiment [1] (setting [3]), 11 nM.
Turning to `NS(=O)(=O)c1ccc(C(=O)N2CC3=C(CN(C(=O)OCc4ccc(OC(F)(F)F)cc4)C3)C2)cc1` [Example 1.06, 4-(trifluoromethoxy)benzyl 5-(4-sulfamoylbenzoyl)-3,4,5,6-tetrahydropyrrolo[3,4-c]pyrrole-2(1H)-carboxylate], the IC50 against human ATX was 5 nM; in experiment [1], 10 nM.
On to `NS(=O)(=O)c1ccc(C(=O)N2CC3=C(CN(C(=O)c4cc(OCC5CCOCC5)nc(C5CC5)c4)C3)C2)nc1` [Example 1.07, 6-[5-[2-cyclopropyl-6-(oxan-4-ylmethoxy)pyridine-4-carbonyl]-1,3,4,6-tetrahydropyrrolo[3,4-c]pyrrole-2-carbonyl]pyridine-3-sulfonamide], for which the values for the IC50 (on human ATX (setting [2]); in experiment [1] (setting [3])) were 12 nM and 18 nM, respectively.
As for `NS(=O)(=O)c1ccc(C(=O)N2CC3=C(CN(C(=O)c4cc(OCC5CCOCC5)nc(C5CC5)c4)C3)C2)c(F)c1` [Example 1.08, 4-[5-[2-cyclopropyl-6-(oxan-4-ylmethoxy)pyridine-4-carbonyl]-1,3,4,6-tetrahydropyrrolo[3,4-c]pyrrole-2-carbonyl]-3-fluorobenzenesulfonamide], the IC50 at human ATX (setting [2]) came to 8 nM; in experiment [1] (setting [3]), 6 nM.
For the molecule `CC(C)(C)C(=O)Nc1cc(C(F)(F)F)cnc1COC(=O)N1CC2=C(C1)CN(C(=O)c1ccc(S(N)(=O)=O)c(F)c1F)C2` [Example 1.09, [3-(2,2-dimethylpropanoylamino)-5-(trifluoromethyl)pyridin-2-yl]methyl 2-(2,3-difluoro-4-sulfamoylbenzoyl)-1,3,4,6-tetrahydropyrrolo[3,4-c]pyrrole-5-carboxylate], the IC50 at human ATX (setting [2]) worked out at 27 nM; in experiment [1] (setting [3]), 10 nM.
Take `Cc1nnn(Cc2cc(C(F)(F)F)ccc2CCC(=O)N2CC3=C(C2)CN(C(=O)c2ccc(S(N)(=O)=O)cc2F)C3)n1` [Example 1.10, 3-fluoro-4-(5-(3-(2-((5-methyl-2H-tetrazol-2-yl)methyl)-4-(trifluoromethyl)phenyl)propanoyl)-1,2,3,4,5,6-hexahydropyrrolo[3,4-c]pyrrole-2-carbonyl)benzenesulfonamide]: the IC50 on human ATX (setting [2]) is 8 nM; in experiment [1] (setting [3]) it was 19 nM.
The like results for `CC(C)(C)C(=O)Nc1cc(C(F)(F)F)cnc1COC(=O)N1CC2=C(C1)CN(C(=O)c1c(F)cc(S(N)(=O)=O)cc1F)C2` [Example 1.11, [3-(2,2-dimethylpropanoylamino)-5-(trifluoromethyl)pyridin-2-yl]methyl 2-(2,6-difluoro-4-sulfamoylbenzoyl)-1,3,4,6-tetrahydropyrrolo[3,4-c]pyrrole-5-carboxylate] were, in that order, 9 nM and 27 nM.
On to `CC(C)(C)C(=O)Nc1cc(Cl)cnc1COC(=O)N1CC2=C(C1)CN(C(=O)c1ccc(S(N)(=O)=O)cc1F)C2` [Example 1.12, [5-chloro-3-(2,2-dimethylpropanoylamino)pyridin-2-yl]methyl 2-(2-fluoro-4-sulfamoylbenzoyl)-1,3,4,6-tetrahydropyrrolo[3,4-c]pyrrole-5-carboxylate], for which the IC50 was 6 nM on human ATX (setting [2]) and 12.9 nM in experiment [1] (setting [3]).
Regarding `CC(C)(C)C(=O)Nc1cc(Cl)cnc1COC(=O)N1CC2=C(C1)CN(C(=O)c1ccc(S(N)(=O)=O)c(F)c1)C2` [Example 1.13, [5-chloro-3-(2,2-dimethylpropanoylamino)pyridin-2-yl]methyl 2-(3-fluoro-4-sulfamoylbenzoyl)-1,3,4,6-tetrahydropyrrolo[3,4-c]pyrrole-5-carboxylate], the results for the IC50 (on human ATX (setting [2]); in experiment [1] (setting [3])) were 2 nM and 20.6 nM, respectively.
For the molecule `CC(C)(C)C(=O)Nc1cc(Cl)cnc1COC(=O)N1CC2=C(C1)CN(C(=O)c1ccc(S(N)(=O)=O)c(F)c1F)C2` [Example 1.14, [5-chloro-3-(2,2-dimethylpropanoylamino)pyridin-2-yl]methyl 2-(2,3-difluoro-4-sulfamoylbenzoyl)-1,3,4,6-tetrahydropyrrolo[3,4-c]pyrrole-5-carboxylate], the figures for the IC50 (at human ATX (setting [2]); in experiment [1] (setting [3])) were 15 nM and 16.6 nM, respectively.
Take `CC(C)(C)C(=O)Nc1cc(Cl)cnc1COC(=O)N1CC2=C(C1)CN(C(=O)c1c(F)cc(S(N)(=O)=O)cc1F)C2` [Example 1.15, [5-chloro-3-(2,2-dimethylpropanoylamino)pyridin-2-yl]methyl 2-(2,6-difluoro-4-sulfamoylbenzoyl)-1,3,4,6-tetrahydropyrrolo[3,4-c]pyrrole-5-carboxylate]: the IC50 at human ATX (setting [2]) came to 8 nM; in experiment [1] (setting [3]), 12.9 nM.
The like results for `CC(C)(C)C(=O)Nc1cc(Cl)cnc1COC(=O)N1CC2=C(C1)CN(C(=O)c1cc(F)c(S(N)(=O)=O)cc1F)C2` [Example 1.16, [5-chloro-3-(2,2-dimethylpropanoylamino)pyridin-2-yl]methyl 2-(2,5-difluoro-4-sulfamoylbenzoyl)-1,3,4,6-tetrahydropyrrolo[3,4-c]pyrrole-5-carboxylate] were, in that order, 9 nM and 10.2 nM.
In the case of `Cc1ccc(NC(=O)C(C)(C)C)c(COC(=O)N2CC3=C(C2)CN(C(=O)c2ccc(S(N)(=O)=O)cc2F)C3)n1` [Example 1.17, [3-(2,2-dimethylpropanoylamino)-6-methylpyridin-2-yl]methyl 2-(2-fluoro-4-sulfamoylbenzoyl)-1,3,4,6-tetrahydropyrrolo[3,4-c]pyrrole-5-carboxylate], the IC50 was 11 nM at human ATX (setting [2]) and 4 nM in experiment [1] (setting [3]).
For `CC(C)(C)C(=O)Nc1ccc(Cl)nc1COC(=O)N1CC2=C(C1)CN(C(=O)c1ccc(S(N)(=O)=O)cc1F)C2` [Example 1.18, [6-chloro-3-(2,2-dimethylpropanoylamino)pyridin-2-yl]methyl 2-(2-fluoro-4-sulfamoylbenzoyl)-1,3,4,6-tetrahydropyrrolo[3,4-c]pyrrole-5-carboxylate], the IC50 came to 2 nM at human ATX (setting [2]) and 1 nM in experiment [1] (setting [3]).
The like results for `CC(C)(C)C(=O)Nc1cccnc1COC(=O)N1CC2=C(C1)CN(C(=O)c1ccc(S(N)(=O)=O)cc1F)C2` [Example 1.19, [3-(2,2-dimethylpropanoylamino)pyridin-2-yl]methyl 2-(2-fluoro-4-sulfamoylbenzoyl)-1,3,4,6-tetrahydropyrrolo[3,4-c]pyrrole-5-carboxylate] were, in that order, 10 nM and 4 nM.
As to `CC(C)(C)C(=O)Nc1ccc(Cl)nc1COC(=O)N1CC2=C(C1)CN(C(=O)c1cc(F)c(S(N)(=O)=O)cc1F)C2` [Example 1.20, [6-chloro-3-(2,2-dimethylpropanoylamino)pyridin-2-yl]methyl 2-(2,5-difluoro-4-sulfamoylbenzoyl)-1,3,4,6-tetrahydropyrrolo[3,4-c]pyrrole-5-carboxylate], the IC50 came to 15 nM on human ATX (setting [2]) and 2 nM in experiment [1] (setting [3]).
